Measurements reported in patent US20240300980A1, “HETEROCYCLIC COMPOUNDS AS KRAS INHIBITOR, AND PREPARATION THEREFOR AND USE THEREOF IN TREATMENT” (SHANGHAI KECHOW PHARMA, INC., priority 2021, published 2024).

What follows are molecules tested on AGS cells (KRAS^G12D) (assay: Detection of cell proliferation in vitro by MTT/MTS method (cell activity experiment)). Conditions: AGS cells; MTT/MTS; 3 days of drug treatment; read-out: AGS IC50.
Assay type: cell-based
How it was run: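 KRAS G12D AGS cells seeded at 1000 per well, compound added 24 h later, 0.5% final DMSO. Viability read after 3 days of treatment by MTT (solubilised in DMSO) or MTS, 4 h, absorbance 490 nm. IC50 from dose–response curves versus DMSO control.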

| SMILES | IC50 |
| --- | --- |
| CCC1CCc2cc(O)cc(-c3ccc4c(N5C[C@H]6CC[C@@H](C5)N6)nc(OC[C@@]56CCCN5C[C@H](F)C6)nc4c3F)c21 (single isomer, unassigned) [Example 284] | 2200 nM |

Same assay, conditions: Homo sapiens, AGS, 72 h, AGS cells; MTT/MTS; 3 days of drug treatment; read-out: AGS IC50

| SMILES | IC50 |
| --- | --- |
| CSc1nccc2cc(O)cc(-c3ncc4c(N5C[C@H]6CC[C@@H](C5)N6)nc(OC[C@@]56CCCN5C[C@H](F)C6)nc4c3F)c12 [Example 341, 8-(4-((1R,5S)-3,8-diazabicyclo[3.2.1]octan-3-yl)-8-fluoro-2-(((2R,7aS)-2-fluorotetrahydro-1H-pyrrolizin-7a(5H)-yl)methoxy)pyrido[4,3-d]pyrimidin-7-yl)-1-(methylthio)isoquinolin-6-ol] | 25 nM |
| Oc1cc(-c2ccc3c(N4C[C@H]5CC[C@@H](C4)N5)nc(OC[C@@]45CCCN4C[C@H](F)C5)nc3c2)c2c(F)c(F)ccc2c1 [Example 150, 4-(4-((1R,5S)-3,8-diazabicyclo[3.2.1]octan-3-yl)-2-(((2R, 7aS)-2-fluorotetrahydro-1H-pyrrolizin-7a(5H)-yl)methoxy)quinazolin-7-yl)-5,6-difluoronaphthalen-2-ol] | 330 nM |
| C#Cc1c(F)ccc2cc(O)cc(-c3ncc4c(N5CC6CCC(C5)C6N)nc(OC[C@@]56CCCN5C[C@H](F)C6)nc4c3F)c12 (stereo partly drawn) [Example 63, 4-(4-((1R,5S,8R)-8-amino-3-azabicyclo [3.2.1]octan-3-yl)-8-fluoro-2-(((2R,7aS)-2-fluorotetrahydro-1H-pyrrolizin-7a(5H)-yl)methoxy)pyrido[4,3-d]pyrimidin-7-yl)-5-ethynyl-6-fluoronaphthalen-2-ol] | 1580 nM |
| C#Cc1c(F)ccc2cc(O)cc(-c3ncc4c(N5CCC6(CC5)CO[C@@H](C)[C@H]6N)nc(OC[C@@]56CCCN5C[C@H](F)C6)nc4c3F)c12 [Example 55, 4-(4-((3S,4S)-4-amino-3-methyl-2-oxa-8-azaspiro[4.5]decan-8-yl)-8-fluoro-2-(((2R, 7aS)-2-fluorotetrahydro-1H-pyrrolizin-7a(5H)-yl)methoxy)pyrido[4,3-d]pyrimidin-7-yl)-5-ethynyl-6-fluoronaphthalen-2-ol] | > 2500 nM |
| C#Cc1c(F)ccc2cc(O)cc(-c3ccc4c(N5CC6CCC(N6)C5=O)nc(OC[C@@]56CCCN5C[C@H](F)C6)nc4c3F)c12 (stereo partly drawn) [Example 214, 3-(7-(8-ethynyl-7-fluoro-3-hydroxynaphthalen-1-yl)-8-fluoro-2-(((2R,7aS)-2-fluorotetrahydro-1H-pyrrolizin-7a(5H)-yl)methoxy)quinazolin-4-yl)-3,8-diazabicyclo[3.2.1]octan-2-one] | > 10000 nM |
| C#Cc1c(F)ccc2cc(O)cc(-c3ncc4c(N5CC6CCC(C5)C6O)nc(OC[C@@]56CCCN5C[C@H](F)C6)nc4c3F)c12 (stereo partly drawn) [Example 60, (1R,5S,8R)-3-(7-(8-ethynyl-7-fluoro-3-hydroxynaphthalen-1-yl)-8-fluoro-2-(((2R,7aS)-2-fluorotetrahydro-1H-pyrrolizin-7a(5H)-yl)methoxy)pyrido[4,3-d]pyrimidin-4-yl)-3-azabicyclo[3.2.1]octan-8-ol] | > 2500 nM |
| N#Cc1c(OC[C@@]23CCCN2C[C@H](F)C3)nc2c(F)c(-c3cc(O)cc4cccc(F)c34)ccc2c1N1C[C@H]2CC[C@@H](C1)N2 [Example 180, 4-((1R,5S)-3,8-diazabicyclo[3.2.1]octan-3-yl)-8-fluoro-7-(8-fluoro-3-hydroxynaphthalen-1-yl)-2-(((2R,7aS)-2-fluorotetrahydro-1H-pyrrolizin-7a(5H)-yl)methoxy)quinoline-3-carbonitrile] | 556 nM |
| C#Cc1c(F)ccc2cc(O)cc(-c3ncc4c(N5CCC6(CCCN6)CC5)nc(OC[C@@]56CCCN5C[C@H](F)C6)nc4c3F)c12 [Example 47, 5-ethynyl-6-fluoro-4-(8-fluoro-2-(((2R,7aS)-2-fluorotetrahydro-1H-pyrrolizin-7a(5H)-yl)methoxy)-4-(1,8-diazaspiro[4.5]decan-8-yl)pyrido[4,3-d]pyrimidin-7-yl) naphthalen-2-ol] | 4540 nM |
| CC1CCCc2cc(O)cc(-c3c4c(c5c(N6C[C@H]7CC[C@@H](C6)N7)nc(OC[C@@]67CCCN6C[C@H](F)C7)nc5c3F)CCC4)c21 (stereo partly drawn) [Example 382, 4-(1-((1R,5S)-3,8-diazabicyclo[3.2.1]octan-3-yl)-5-fluoro-3-(((2R,7aS)-2-fluorotetrahydro-1H-pyrrolizin-7a(5H)-yl)methoxy)-8,9-dihydro-7H-cyclopenta[f]quinazolin-6-yl)-5-methyl-5,6,7,8-tetrahydronaphthalen-2-ol] | 45 nM |
| CC1CCc2cc(O)cc(-c3ccc4c(N5C[C@H]6CC[C@@H](C5)N6)nc(OC[C@@]56CCCN5C[C@H](F)C6)nc4c3F)c21 (stereo partly drawn) [Example 286, 7-(4-((1R,5S)-3,8-diazabicyclo[3.2.1]octan-3-yl)-8-fluoro-2-(((2R,7aS)-2-fluorotetrahydro-1H-pyrrolizin-7a(5H)-yl)methoxy)quinazolin-7-yl)-1-methyl-2,3-dihydro-1H-inden-5-ol] | 29 nM |
| Oc1cc2c(c(-c3ncc4c(N5C[C@H]6CC[C@@H](C5)N6)nc(OC[C@@]56CCCN5C[C@H](F)C6)nc4c3F)c1)C(C(F)F)CCC2 (stereo partly drawn) [Example 261, 4-(4-((1R,5S)-3,8-diazabicyclo[3.2.1]octan-3-yl)-8-fluoro-2-(((2R,7aS)-2-fluorotetrahydro-1H-pyrrolizin-7a(5H)-yl)methoxy)pyrido[4,3-d]pyrimidin-7-yl)-5-(difluoromethyl)-5,6,7,8-tetrahydronaphthalen-2-ol] | 1930 nM |
| CCc1c(F)ccc2cc(O)cc(-c3ccc4c(N5C[C@H]6CC[C@@H](C5)N6)c(C#N)c(OC[C@@]56CCCN5C[C@H](F)C6)nc4c3F)c12 [Example 178, 4-((1R,5S)-3,8-diazabicyclo[3.2.1]octan-3-yl)-7-(8-ethyl-7-fluoro-3-hydroxynaphthalen-1-yl)-8-fluoro-2-(((2R,7aS)-2-fluorotetrahydro-1H-pyrrolizin-7a(5H)-yl)methoxy)quinoline-3-carbonitrile] | 535 nM |
| C#Cc1cc2c(N3C[C@H]4CC[C@@H](C3)N4)nc(OC[C@@]34CCCN3C[C@H](F)C4)nc2c(F)c1-c1cc(O)cc2ccccc12 [Example 369, 4-(4-((1R,5S)-3,8-diazabicyclo[3.2.1]octan-3-yl)-6-ethynyl-8-fluoro-2-(((2R,7aS)-2-fluorotetrahydro-1H-pyrrolizin-7a(5H)-yl)methoxy)quinazolin-7-yl)naphthalen-2-ol] | 180 nM |
| C#Cc1c(F)ccc2cc(O)cc(-c3ccc4c(N5C[C@H]6CC[C@@H](C5)N6)c(C(F)(F)F)c(OC[C@@]56CCCN5C[C@H](F)C6)nc4c3F)c12 [Example 185, 4-(4-((1R,5S)-3,8-diazabicyclo[3.2.1]octan-3-yl)-8-fluoro-2-(((2R,7aS)-2-fluorotetrahydro-1H-pyrrolizin-7a(5H)-yl)methoxy)-3-(trifluoromethyl)quinolin-7-yl)-5-ethynyl-6-fluoronaphthalen-2-ol] | 1350 nM |
| CCc1c(F)ccc2cc(O)cc(-c3ccc4c(N5C[C@H]6CC[C@@H](C5)N6)nc(OC[C@]56CCCN5[C@@H](COC(=O)N(C)C)CC6)nc4c3F)c12 [Example 97, ((3R,7aR)-7a-(((4-((1R,5S)-3,8-diazabicyclo[3.2.1]octan-3-yl)-7-(8-ethyl-7-fluoro-3-hydroxynaphthalen-1-yl)-8-fluoroquinazolin-2-yl)oxy)methyl)hexahydro-1H-pyrrolizin-3-yl) methyl dimethylcarbamate] | 18 nM |
| CCC1CCc2cc(O)cc(-c3c(F)c4nc(OC[C@@]56CCCN5C[C@H](F)C6)nc(N5C[C@H]6CC[C@@H](C5)N6)c4c4cncn34)c21 (stereo partly drawn) [Example 418, 7-(1-((1R,5S)-3,8-diazabicyclo[3.2.1]octan-3-yl)-5-fluoro-3-(((2R,7aS)-2-fluorotetrahydro-1H-pyrrolizin-7a(5H)-yl)methoxy)imidazo[1′,5′:1,2]pyrido[4,3-d]pyrimidin-6-yl)-1-ethyl-2,3-dihydro-1H-inden-5-ol] | 75 nM |
| Oc1cc2c(c(-c3ncc4c(N5C[C@H]6CC[C@@H](C5)N6)nc(OC[C@@]56CCCN5C[C@H](F)C6)nc4c3F)c1)CCCC2 [Example 271, 4-(4-((1R,5S)-3,8-diazabicyclo[3.2.1]octan-3-yl)-8-fluoro-2-(((2R,7aS)-2-fluorotetrahydro-1H-pyrrolizin-7a(5H)-yl)methoxy)pyrido[4,3-d]pyrimidin-7-yl)-5,6,7,8-tetrahydronaphthalen-2-ol] | 11 nM |
| CCc1c(F)ccc2cc(O)cc(-c3ccc4c(N5C[C@H]6CC[C@@H](C5)N6)nc(OC[C@]56CCCN5[C@@H](COC(=O)N(C)C)CC6)nc4c3)c12 [Example 154, ((3R,7aR)-7a-(((4-((1R, 5S)-3,8-diazabicyclo [3.2.1]octan-3-yl)-7-(8-ethyl-7-fluoro-3-hydroxynaphthalen-1-yl)quinazolin-2-yl)oxy)methyl)hexahydro-1H-pyrrolizin-3-yl) methyl dimethylcarbamate] | 195 nM |
| O=C1CCCc2cc(O)cc(-c3ncc4c(N5C[C@H]6CC[C@@H](C5)N6)nc(OC[C@@]56CCCN5C[C@H](F)C6)nc4c3F)c21 [Example 249, 8-(4-((1R,5S)-3,8-diazabicyclo[3.2.1]octan-3-yl)-8-fluoro-2-(((2R,7aS)-2-fluorotetrahydro-1H-pyrrolizin-7a(5H)-yl)methoxy)pyrido[4,3-d]pyrimidin-7-yl)-6-hydroxy-3,4-dihydronaphthalen-1(2H)-one] | > 2500 nM |
| N#Cc1c(OC[C@@]23CCCN2C[C@H](F)C3)nc2c(F)c(-c3cc(O)cc4cccc(F)c34)ncc2c1N1C[C@H]2CC[C@@H](C1)N2 [Example 194, 4-((1R,5S)-3,8-diazabicyclo[3.2.1]octan-3-yl)-8-fluoro-7-(8-fluoro-3-hydroxynaphthalen-1-yl)-2-(((2R,7aS)-2-fluorotetrahydro-1H-pyrrolizin-7a(5H)-yl)methoxy)-1,6-naphthyridine-3-carbonitrile] | 150 nM |
